From PMC11591096, “Hit Identification and Functional Validation of Novel Dual Inhibitors of HDAC8 and Tubulin Identified by Combining Docking and Molecular Dynamics Simulations” (Antioxidants, 2024)

Biological target: T1, HDAC8 (Homo sapiens, UniProt Q9BY41)
T1 construct: purchased enzyme (VinciBiochem)
T1 sequence (Q9BY41 1-377): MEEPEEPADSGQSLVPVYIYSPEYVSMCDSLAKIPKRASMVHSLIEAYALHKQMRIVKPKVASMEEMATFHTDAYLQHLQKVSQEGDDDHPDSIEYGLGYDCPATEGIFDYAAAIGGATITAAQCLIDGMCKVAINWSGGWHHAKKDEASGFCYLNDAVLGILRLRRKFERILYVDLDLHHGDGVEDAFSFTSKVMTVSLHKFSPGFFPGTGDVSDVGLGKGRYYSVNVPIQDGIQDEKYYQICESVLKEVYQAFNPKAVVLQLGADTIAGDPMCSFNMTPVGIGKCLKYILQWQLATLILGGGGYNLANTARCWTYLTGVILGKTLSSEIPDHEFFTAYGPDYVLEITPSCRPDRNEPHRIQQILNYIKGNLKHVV
Experiment: HDAC-Glo I/II bioluminogenic deacetylase assay
Type: biochemical
Details: read-out: HDAC8IC50 (μM) ^a
Text: HDAC-Glo I/II bioluminogenic deacetylase assay on HDAC8

IC50: > 300 µM
SMILES: Cc1cc(OCC(=O)N2CCC(C(N)=O)CC2)c2c(C)c(Cc3ccccc3)c(=O)oc2c1 [CNP0217284]
